From patent US7851475B2, “Substituted pyrrole-2, 5-diones as protein kinase C inhibitors” (Novartis AG, priority 2004, dated 2010)

How the values were obtained:
[1] = test system: spleen cells from CBA and BALB/c mice; experiment: Allogeneic Mixed Lymphocyte Reaction (MLR); type: cell-based; settings: two-way MLR, CBA and BALB/c mouse spleen cells, four days incubation, read-out: IC50 MLR (3H-thymidine incorporation, proliferation)
Method: The two-way MLR is performed according to standard procedures (J. Immunol. Methods, 1973, 2, 279 and Meo T. et al., Immunological Methods, New York, Academic Press, 1979, 227-39). Briefly, spleen cells from CBA and BALB/c mice (1.6×10^5 cells from each strain per well in flat bottom tissue culture microtiter plates, 3.2×10^5 in total) are incubated in RPMI medium containing 10% FCS, 100 U/ml penicillin, 100 μg/ml streptomycin (Gibco BRL, Basel, Switzerland), 50 μM 2-mercaptoethanol (Fluka, Buchs, Switzerland) and serially diluted compounds. Seven three-fold dilution steps in duplicates per test compound are performed. After four days of incubation 1 μCi ^3H-thymidine is added. Cells are harvested after an additional five-hour incubation period, and incorporated ^3H-thymidine is determined according to standard procedures. Background values (low control) of the MLR are […].
[…] proliferation of BALB/c cells alone. Low controls are subtracted from all values. High controls without any sample are taken as 100% proliferation. […]

Human recombinant PKCθ = Human recombinant PKCθ (Homo sapiens, UniProt Q04759); experiment: Protein Kinase C θ Assay
Chain of Human recombinant PKCθ (Q04759 whole entry): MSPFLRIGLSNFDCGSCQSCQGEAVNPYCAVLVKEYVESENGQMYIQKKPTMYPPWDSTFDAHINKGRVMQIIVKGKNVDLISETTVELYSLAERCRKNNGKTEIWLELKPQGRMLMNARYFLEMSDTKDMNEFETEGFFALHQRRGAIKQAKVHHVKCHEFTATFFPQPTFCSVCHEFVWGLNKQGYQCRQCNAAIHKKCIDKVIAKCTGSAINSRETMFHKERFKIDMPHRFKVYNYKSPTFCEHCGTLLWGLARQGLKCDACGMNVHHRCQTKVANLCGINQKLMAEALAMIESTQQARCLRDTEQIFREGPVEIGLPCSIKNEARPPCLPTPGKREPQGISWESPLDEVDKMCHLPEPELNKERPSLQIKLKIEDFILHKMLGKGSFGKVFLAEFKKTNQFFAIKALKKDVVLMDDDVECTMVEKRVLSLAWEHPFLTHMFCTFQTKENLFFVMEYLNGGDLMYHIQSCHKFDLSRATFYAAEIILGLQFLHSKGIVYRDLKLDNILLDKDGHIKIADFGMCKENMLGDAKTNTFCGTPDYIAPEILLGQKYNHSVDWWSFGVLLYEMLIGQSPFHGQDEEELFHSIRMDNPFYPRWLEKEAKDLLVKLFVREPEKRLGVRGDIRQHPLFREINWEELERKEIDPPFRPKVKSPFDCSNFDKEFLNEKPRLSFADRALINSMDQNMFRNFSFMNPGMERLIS
Method: The compounds of the invention are tested for their activity on different PKC isoforms according to the following method. Assay is performed in a white with clear bottom 384-well microtiterplate with non-binding surface. The reaction mixture (25 μl) contains 1.5 μM of a tridecapeptide acceptor substrate that mimics the pseudo substrate sequence of PKC α with the Ala→Ser replacement, 10 μM ^33P-ATP, 10 mM Mg(NO3)2, 0.2 mM CaCl2, PKC at a protein concentration varying from 25 to 400 ng/ml (depending on the isotype used), lipid vesicles (containing 30 mol % phosphatidylserine, 5 mol % DAG and 65 mol % phosphatidylcholine) at a final lipid concentration of 0.5 mM, in 20 mM Tris-HCl buffer pH 7.4+0.1% BSA. Incubation is performed for 60 min at room temperature. Reaction is stopped by adding 50 μl of stop mix (100 mM EDTA, 200 μM ATP, 0.1% Triton X-100, 0.375 mg/well streptavidin-coated SPA beads in phosphate buffered saline w/o Ca, Mg). After 10 min incubation at room temperature, the suspension is spun down for 10 min at 300 g. Incorporated radioactivity is measured in a Trilux counter for 1 min. IC50 measurement is performed on a routine basis by incubating a serial dilution of inhibitor at concentrations ranging between 1-1000 μM. IC50 values are calculated from the graph by curve fitting with XL fit® software.

[2] = test system: Jurkat cells transfected with a human interleukin-2 promoter/reporter gene construct; experiment: CD28 Costimulation Assay; type: cell-based; settings: stimulated transfected Jurkat cells, 5.5 hours, stimulus not specified for these values, read-out: IC50 CD28 costimulation assay (luciferase reporter)
Method: The assay is performed with Jurkat cells transfected with a human interleukin-2 promoter/reporter gene construct as described by Baumann G et al. in Transplant. Proc. 1992; 24:43-8, the β-galactosidase reporter gene being replaced by the luciferase gene (de Wet J., et al., Mol. Cell. Biol. 1987, 7(2), 725-737). Cells are stimulated by solid phase-coupled antibodies or phorbol myristate acetate (PMA) and the Ca^++ ionophore ionomycin as follows. For antibody-mediated stimulation Microlite TM1 microtiter plates (Dynatech) are coated with 3 μg/ml goat anti-mouse IgG Fc antibodies (Jackson) in 55 μl phosphate-buffered saline (PBS) per well for three hours at RT. Plates are blocked after removing the antibodies by incubation with 2% bovine serum albumin (BSA) in PBS (300 μl per well) for 2 hours at RT. […] After incubation for 5.5 hours at 37° C. in 5% CO2, the level of luciferase is determined by bioluminescence measurement. […] Luciferase activity is assessed with a bioluminescence reader (Labsystem, Helsinki, Finland) after automatic addition of 50 μl per well luciferase reaction buffer containing 20 mM Tricine, 1.07 mM (MgCO3)4Mg(OH)2×5H2O, 2.67 mM MgSO4, 0.1 mM EDTA, 33.3 mM DTT, 270 μM coenzyme A, 470 μM luciferin (Chemie Brunschwig AG), 530 μM ATP, pH 7.8. […] The inhibition obtained in the presence of a test compound is calculated as percent inhibition of the high control. […]

Human recombinant PKCα = biological target: T1, Human recombinant PKCα (Homo sapiens, UniProt P17252); experiment: Protein Kinase Cα Assay; type: biochemical; settings: 10 μM 33P-ATP, 60 min room temperature
T1 construct: purchased Oxford Biomedical Research

SMILES | IC50 [1] [nM] | IC50 (Human recombinant PKCθ) [nM] | IC50 [2] [nM] | IC50 (Human recombinant PKCα) [nM]
CN1CCN(c2ccc([N+](=O)[O-])c(C3=C(c4c[nH]c5ccccc45)C(=O)NC3=O)c2)CC1 [Example 1, 3-(1H-indol-3-yl)-4-[5-(4-methyl-piperazin-1-yl)-2-nitro-phenyl]-pyrrole-2,5-dione] | 17.5 | 8.9 | 25.5 | 2.6
Cc1cccc2c(C3=C(c4cc(N5CCN(C)CC5)ccc4[N+](=O)[O-])C(=O)NC3=O)c[nH]c12 [Example 4] | 24 | 10.2 | 17 | 2.9
